Results on 21 molecules are retold here after patent publication US20060089378A1 (priority 2004, published 2006).

The target of one assay is T1, Cannabinoid CB1 Receptor (Homo sapiens, UniProt P21554).
T1 construct: expressed in transfected cells
Nature of the assay: Binding assay for CB1 agonists or inverse agonists (radioligand competition, membranes of transfected SK-N-MC cells). On the technique in general: Loss of bound radioactivity is the signal in a displacement assay; it reports binding, not function.

A further assay has as its target T2, Cannabinoid CB2 Receptor (Homo sapiens, UniProt P34972).
T2 construct: expressed in transfected cells
As to the kind of experiment: Binding assay for CB2 agonists or inverse agonists (radioligand competition, membranes of transfected SK-N-MC cells). As to conditions: for inhibition at 0.2 µM: read-out: Cannabinoid CB2 Receptor Binding percent inhibition.

The target in a further assay is CB1 receptor (human) (Homo sapiens, UniProt P21554). Nature of the assay: cell-based. As to conditions: for CB1 Receptor Functional Activity (change in functional activity, CRE β-gal): one compound concentration, β-galactosidase activity relative to vehicle treated cells.
Setting [1] is: human CB1, SK-N-MC cell membranes, calculated by linear regression from percent inhibition at various concentrations, read-out: Cannabinoid CB1 Receptor Binding IC50.

pEC50, pIC50: −log10 of the molar value. Like-named read-outs stand apart in the source and are kept apart here.

Chain of CB1 receptor (human) (P21554 whole entry): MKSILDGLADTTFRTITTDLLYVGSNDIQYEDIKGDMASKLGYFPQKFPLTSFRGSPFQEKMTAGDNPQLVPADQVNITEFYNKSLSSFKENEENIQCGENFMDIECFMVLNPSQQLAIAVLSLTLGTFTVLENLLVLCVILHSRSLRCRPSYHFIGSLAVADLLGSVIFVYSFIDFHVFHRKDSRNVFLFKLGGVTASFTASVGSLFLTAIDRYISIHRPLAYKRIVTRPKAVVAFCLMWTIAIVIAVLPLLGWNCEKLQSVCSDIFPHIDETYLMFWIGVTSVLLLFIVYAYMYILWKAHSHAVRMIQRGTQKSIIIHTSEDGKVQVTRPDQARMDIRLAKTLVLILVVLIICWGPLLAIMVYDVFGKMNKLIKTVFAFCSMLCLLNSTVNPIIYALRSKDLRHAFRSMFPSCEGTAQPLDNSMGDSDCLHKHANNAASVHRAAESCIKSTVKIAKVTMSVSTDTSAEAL
T1 sequence (P21554 whole entry): as above
T2 sequence (P34972 whole entry): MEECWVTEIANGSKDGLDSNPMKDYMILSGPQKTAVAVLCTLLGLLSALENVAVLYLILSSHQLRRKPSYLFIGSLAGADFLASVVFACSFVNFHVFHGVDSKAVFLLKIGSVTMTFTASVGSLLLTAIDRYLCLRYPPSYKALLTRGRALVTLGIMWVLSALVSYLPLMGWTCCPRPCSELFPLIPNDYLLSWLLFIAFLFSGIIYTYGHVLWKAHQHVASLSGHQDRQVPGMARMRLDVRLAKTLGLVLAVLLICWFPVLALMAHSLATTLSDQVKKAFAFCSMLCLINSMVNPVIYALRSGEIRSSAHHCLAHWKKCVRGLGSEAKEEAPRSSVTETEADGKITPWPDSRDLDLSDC

In turn, `CC(=O)N1C/C(=C\c2ccc(F)cc2)c2c(c(C(=O)N[C@H](C)c3ccccc3)nn2-c2ccc(Cl)cc2Cl)C1` [Cpd 3, (7E)-5-acetyl-1-(2,4-dichloro-phenyl)-7-(4-fluoro-benzylidene)-4,5,6,7-tetrahydro-1H-pyrazolo[4,3-c]pyridine-3-carboxylic acid [(1R)-1-phenyl-ethyl]-amide] showed a pIC50 on Cannabinoid CB1 Receptor of 8.00. For the same molecule, on Cannabinoid CB2 Receptor, the inhibition at 0.2 µM worked out at 20%. For the same molecule, the pEC50 on CB1 receptor (human) is 8.52.

`CC(=O)N1C/C(=C\c2ccc(F)cc2)c2c(c(C(=O)N[C@H](C)c3ccccc3)nn2-c2ccc(Cl)cc2)C1` [Cpd 68, (7E)-5-acetyl-1-(4-chloro-phenyl)-7-(4-fluoro-benzylidene)-4,5,6,7-tetrahydro-1H-pyrazolo[4,3-c]pyridine-3-carboxylic acid [(1R)-1-phenyl-ethyl]-amide] gave a pIC50 on Cannabinoid CB1 Receptor of 7.70. For the same molecule, the inhibition at 0.2 µM on Cannabinoid CB2 Receptor turned out to be 11%. At CB1 receptor (human), this molecule showed a pEC50 of 8.52.

`CN(C)S(=O)(=O)N1CCc2c(c(C(=O)NC3C4(C)CCC(C4)C3(C)C)nn2C2CCCCC2)C1` (centres unmarked) [Cpd 127, 1-cyclohexyl-5-dimethylsulfamoyl-4,5,6,7-tetrahydro-1H-pyrazolo[4,3-c]pyridine-3-carboxylic acid (1,3,3-trimethyl-bicyclo[2.2.1]hept-2-yl)-amide]: the results for the pIC50 at Cannabinoid CB1 Receptor and at Cannabinoid CB2 Receptor were 5.59 and 6.05, respectively. The “CB1 Receptor Functional Activity (change in functional activity, CRE β-gal)” value at CB1 receptor (human) is on record as 28%.

For `CCOC(=O)N1CCc2c(c(C(=O)NC3C4(C)CCC(C4)C3(C)C)nn2-c2ccccc2)C1` (centres unmarked) [Cpd 113, 1-phenyl-3-(1,3,3-trimethyl-bicyclo[2.2.1]hept-2-ylcarbamoyl)-1,4,6,7-tetrahydro-pyrazolo[4,3-c]pyridine-5-carboxylic acid ethyl ester], the pIC50 was 5.64 at Cannabinoid CB1 Receptor and 7.10 at Cannabinoid CB2 Receptor. The “CB1 Receptor Functional Activity (change in functional activity, CRE β-gal)” value on CB1 receptor (human) was found to be 57%.

Turning to `C[C@@H](NC(=O)c1nn(-c2ccc(Cl)cc2Cl)c2c1CNC/C2=C\c1ccc(F)cc1)C1CCCCC1` [Cpd 28, (7E)-1-(2,4-dichloro-phenyl)-7-(4-fluoro-benzylidene)-4,5,6,7-tetrahydro-1H-pyrazolo[4,3-c]pyridine-3-carboxylic acid [(1R)-1-cyclohexyl-ethyl]-amide], the pIC50 at Cannabinoid CB1 Receptor was 7.70. In addition, the inhibition at 0.2 µM at Cannabinoid CB2 Receptor turned out to be 31%. The pEC50 on CB1 receptor (human) is 8.10.

In the case of `Cc1ccc(S(=O)(=O)N2C/C(=C\c3ccc(F)cc3)c3c(c(C(=O)N[C@H](C)c4ccccc4)nn3-c3ccc(Cl)cc3Cl)C2)cc1` [Cpd 18], the pIC50 on Cannabinoid CB1 Receptor is 8.00. Further, the inhibition at 0.2 µM at Cannabinoid CB2 Receptor stood at 48%. Further, at CB1 receptor (human), the pEC50 is 7.10.

`CCNC(=O)N1CCc2c(c(C(=O)NC3C4(C)CCC(C4)C3(C)C)nn2C2CCCCC2)C1` (centres unmarked) [Cpd 129, 1-cyclohexyl-1,4,6,7-tetrahydro-pyrazolo[4,3-c]pyridine-3,5-dicarboxylic acid 5-ethylamide 3-[(1,3,3-trimethyl-bicyclo[2.2.1]hept-2-yl)-amide]] had a pIC50 at Cannabinoid CB1 Receptor of 6.00. The “CB1 Receptor Functional Activity (change in functional activity, CRE β-gal)” value at CB1 receptor (human) was 36%.

For `C[C@@H](NC(=O)c1nn(Cc2ccccc2)c2c1CN(C(=O)OC(C)(C)C)CC2)C1CCCCC1` [Cpd 103, 1-benzyl-3-[(1R)-1-cyclohexyl-ethylcarbamoyl]-1,4,6,7-tetrahydro-pyrazolo[4,3-c]pyridine-5-carboxylic acid tert-butyl ester], the pIC50 is 6.52 at Cannabinoid CB1 Receptor (setting [1]) and 6.05 on Cannabinoid CB2 Receptor (human CB2, SK-N-MC cell membranes, calculated by linear regression from percent inhibition at various concentrations, read-out: Cannabinoid CB2 Receptor Binding IC50). On CB1 receptor (human), the “CB1 Receptor Functional Activity (change in functional activity, CRE β-gal)” value worked out at 8%.

`CC(NC(=O)c1nn(-c2ccc(Cl)cc2Cl)c2c1CN(C)C/C2=C\c1ccc(F)cc1)c1ccccn1` (centres unmarked) [Cpd 29, (7E)-1-(2,4-dichloro-phenyl)-7-(4-fluoro-benzylidene)-5-methyl-4,5,6,7-tetrahydro-1H-pyrazolo[4,3-c]pyridine-3-carboxylic acid (1-pyridin-2-yl-ethyl)-amide] gave a pIC50 on Cannabinoid CB1 Receptor of 7.22. Besides, on Cannabinoid CB2 Receptor, the inhibition at 0.2 µM is 6%. The same molecule gave a pEC50 at CB1 receptor (human) of 8.22.

For the molecule `O=C(NN1CCCCC1)c1nn(-c2ccc(Cl)cc2)c2c1CNC/C2=C\c1ccc(F)cc1` [Cpd 76, (7E)-1-(4-chloro-phenyl)-7-(4-fluoro-benzylidene)-4,5,6,7-tetrahydro-1H-pyrazolo[4,3-c]pyridine-3-carboxylic acid piperidin-1-ylamide], the inhibition at 0.2 µM on Cannabinoid CB1 Receptor (read-out: Cannabinoid CB1 Receptor Binding percent inhibition) is 48%; at Cannabinoid CB2 Receptor, 0%. Also, at CB1 receptor (human), the pEC50 was 7.52.

For `CC(=O)N1C/C(=C\c2ccc(F)cc2)c2c(c(C(=O)N[C@H](C)C3CCCCC3)nn2-c2ccc(Cl)cc2Cl)C1` [Cpd 14, (7E)-5-acetyl-1-(2,4-dichloro-phenyl)-7-(4-fluoro-benzylidene)-4,5,6,7-tetrahydro-1H-pyrazolo[4,3-c]pyridine-3-carboxylic acid [(1R)-1-cyclohexyl-ethyl]-amide], the pIC50 at Cannabinoid CB1 Receptor was 8.10. For the same molecule, the inhibition at 0.2 µM at Cannabinoid CB2 Receptor turned out to be 16%. On CB1 receptor (human), this molecule gave a pEC50 of 8.40.

In turn, `COC(=O)N1C/C(=C\c2ccc(OC)cc2)c2c(c(C(=O)NC(C)c3ccccn3)nn2-c2ccc(Cl)cc2Cl)C1` (centres unmarked) [Cpd 62, (7E)-1-(2,4-dichloro-phenyl)-7-(4-methoxy-benzylidene)-3-(1-pyridin-2-yl-ethylcarbamoyl)-1,4,6,7-tetrahydro-pyrazolo[4,3-c]pyridine-5-carboxylic acid methyl ester] had a pIC50 on Cannabinoid CB1 Receptor of 8.30. For the same molecule, the inhibition at 0.2 µM at Cannabinoid CB2 Receptor came to 70%. At CB1 receptor (human), this molecule gave a pEC50 of 8.70.

The molecule `CCOC(=O)CN1C/C(=C\c2ccc(OC)cc2)c2c(c(C(=O)NC(C)c3ccccn3)nn2-c2ccc(Cl)cc2Cl)C1` (centres unmarked) [Cpd 65, (7E)-[1-(2,4-dichloro-phenyl)-7-(4-methoxy-benzylidene)-3-(1-pyridin-2-yl-ethylcarbamoyl)-1,4,6,7-tetrahydro-pyrazolo[4,3-c]pyridin-5-yl]-acetic acid ethyl ester] gave a pIC50 on Cannabinoid CB1 Receptor of 8.00. Moreover, the inhibition at 0.2 µM at Cannabinoid CB2 Receptor is 39%. The same molecule showed a pEC50 at CB1 receptor (human) of 8.05.

Take `COc1ccc(/C=C2\CNCc3c(C(=O)NN4CC5CCCC5C4)nn(-c4ccc(Cl)cc4Cl)c32)cc1` (centres unmarked) [Cpd 95, (7E)-1-(2,4-dichloro-phenyl)-7-(4-methoxy-benzylidene)-4,5,6,7-tetrahydro-1H-pyrazolo[4,3-c]pyridine-3-carboxylic acid (hexahydro-cyclopenta[c]pyrrol-2-yl)-amide]: the pIC50 at Cannabinoid CB1 Receptor is 7.10. Further, on Cannabinoid CB2 Receptor, the inhibition at 0.2 µM came to 20%. The negative logarithm of the EC50 (pEC50) at CB1 receptor (human) was 8.05.

Take `O=C(NN1CC2CCCC2C1)c1nn(-c2ccc(Cl)cc2Cl)c2c1CNC/C2=C\c1ccc(F)cc1` (centres unmarked) [Cpd 90, (7E)-1-(2,4-dichloro-phenyl)-7-(4-fluoro-benzylidene)-4,5,6,7-tetrahydro-1H-pyrazolo[4,3-c]pyridine-3-carboxylic acid (hexahydro-cyclopenta[c]pyrrol-2-yl)-amide]: the pIC50 on Cannabinoid CB1 Receptor was 7.52. Besides, the inhibition at 0.2 µM on Cannabinoid CB2 Receptor is 15%. The same molecule showed a negative logarithm of the EC50 (pEC50) at CB1 receptor (human) of 8.10.

The molecule `C[C@@H](NC(=O)c1nn(-c2ccc(Cl)cc2Cl)c2c1CN(C(=O)OC(C)(C)C)C/C2=C\c1ccc(F)cc1)c1ccccn1` [Cpd 138, (7E)-1-(2,4-dichloro-phenyl)-7-(4-fluoro-benzylidene)-3-[(1R)-1-pyridin-2-yl-ethylcarbamoyl]-1,4,6,7-tetrahydro-pyrazolo[4,3-c]pyridine-5-carboxylic acid tert-butyl ester] had a pIC50 on Cannabinoid CB1 Receptor of 7.52. Besides, the inhibition at 0.2 µM at Cannabinoid CB2 Receptor was 21%. On CB1 receptor (human), this molecule showed a pEC50 of 8.05.

On to `COc1ccc(/C=C2\CNCc3c(C(=O)NN4CCCCC4)nn(-c4ccc(Cl)cc4Cl)c32)cc1` [Cpd 50, (7E)-1-(2,4-dichloro-phenyl)-7-(4-methoxy-benzylidene)-4,5,6,7-tetrahydro-1H-pyrazolo[4,3-c]pyridine-3-carboxylic acid piperidin-1-ylamide], for which the pIC50 on Cannabinoid CB1 Receptor was 7.00. For the same molecule, the inhibition at 0.2 µM on Cannabinoid CB2 Receptor amounted to 20%. The pEC50 at CB1 receptor (human) was 8.70.

For the molecule `CC(C)(C)OC(=O)N1CCc2c(c(C(=O)N[C@H]3C4(C)CCC(C4)C3(C)C)nn2Cc2ccccc2)C1` (stereo partly drawn) [Cpd 104, 1-benzyl-3-[(2S)-1,3,3-trimethyl-bicyclo[2.2.1]hept-2-ylcarbamoyl]-1,4,6,7-tetrahydro-pyrazolo[4,3-c]pyridine-5-carboxylic acid tert-butyl ester], the figures for the pIC50 at Cannabinoid CB1 Receptor (setting [1]) and at Cannabinoid CB2 Receptor were 6.30 and 7.70, respectively. Also, the “CB1 Receptor Functional Activity (change in functional activity, CRE β-gal)” value on CB1 receptor (human) is listed as −11%.

As to `CC(NC(=O)c1nn(-c2ccc(Cl)cc2Cl)c2c1CN(C(=O)OCc1ccccc1)C/C2=C\c1ccc(F)cc1)c1ccccn1` (centres unmarked) [Cpd 25, (7E)-1-(2,4-dichloro-phenyl)-7-(4-fluoro-benzylidene)-3-(1-pyridin-2-yl-ethylcarbamoyl)-1,4,6,7-tetrahydro-pyrazolo[4,3-c]pyridine-5-carboxylic acid benzyl ester], the pIC50 on Cannabinoid CB1 Receptor was 7.30. In addition, the inhibition at 0.2 µM at Cannabinoid CB2 Receptor was 17%. Further, on CB1 receptor (human), the pEC50 is 7.05.

For the molecule `COc1ccc(/C=C2\CN(S(C)(=O)=O)Cc3c(C(=O)NN4CCCCC4)nn(-c4ccc(Cl)cc4Cl)c32)cc1` [Cpd 53, (7E)-1-(2,4-dichloro-phenyl)-5-methanesulfonyl-7-(4-methoxy-benzylidene)-4,5,6,7-tetrahydro-1H-pyrazolo[4,3-c]pyridine-3-carboxylic acid piperidin-1-ylamide], the pIC50 on Cannabinoid CB1 Receptor is 7.52. On Cannabinoid CB2 Receptor, the inhibition at 0.2 µM amounted to 29%. Moreover, the pEC50 on CB1 receptor (human) was 8.30.

As to `CC(NC(=O)c1nn(-c2ccc(Cl)cc2)c2c1CNC/C2=C\c1ccc(F)cc1)c1ccccn1` (centres unmarked) [Cpd 75, (7E)-1-(4-chloro-phenyl)-7-(4-fluoro-benzylidene)-4,5,6,7-tetrahydro-1H-pyrazolo[4,3-c]pyridine-3-carboxylic acid (1-pyridin-2-yl-ethyl)-amide], the pIC50 at Cannabinoid CB1 Receptor was 6.70. For the same molecule, the inhibition at 0.2 µM at Cannabinoid CB2 Receptor came to 0%. Moreover, the pEC50 on CB1 receptor (human) is 7.40.

For orientation: pIC50 means the negative decadic logarithm of the IC50, by convention in mol/L. For orientation: inhibition means the relative decrease from the control value, in per cent. A word on the pEC50: it is the EC50 on a negative log10 scale, so that one unit is a factor of ten.
